Source: patent US20260256925A1, “INDAZOLE DERIVATIVES AS ESTROGEN RECEPTOR DEGRADERS” (REGENTS OF THE UNIVERSITY OF MICHIGAN, priority 2022, published 2026)

How the values were obtained:
ER [1] = biological target: T1, ER (Homo sapiens, UniProt P03372); experiment: In-cell Western (ICW) ER degradation assay in MCF-7 cells; type: cell-based; details: for DC50: read-out: ER MCF7 ICW DC50
T1 construct: endogenous in cells; probably T47D or MCF-7
T1 sequence (P03372 1-595): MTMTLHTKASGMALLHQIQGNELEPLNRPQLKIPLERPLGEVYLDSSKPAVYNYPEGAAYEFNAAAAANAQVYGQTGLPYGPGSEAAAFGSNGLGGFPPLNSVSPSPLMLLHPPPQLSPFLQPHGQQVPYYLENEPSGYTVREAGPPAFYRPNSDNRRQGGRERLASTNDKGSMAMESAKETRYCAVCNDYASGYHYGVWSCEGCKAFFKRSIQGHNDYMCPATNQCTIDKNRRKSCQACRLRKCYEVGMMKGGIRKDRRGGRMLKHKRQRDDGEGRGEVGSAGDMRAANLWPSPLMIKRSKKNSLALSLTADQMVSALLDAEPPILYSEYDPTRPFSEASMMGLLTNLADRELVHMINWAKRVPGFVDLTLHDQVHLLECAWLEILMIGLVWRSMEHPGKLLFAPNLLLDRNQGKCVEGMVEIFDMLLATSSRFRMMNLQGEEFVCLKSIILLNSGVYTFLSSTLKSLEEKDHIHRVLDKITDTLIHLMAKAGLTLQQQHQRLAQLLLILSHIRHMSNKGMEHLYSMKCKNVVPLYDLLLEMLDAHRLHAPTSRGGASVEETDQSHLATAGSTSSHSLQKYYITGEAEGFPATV
Experimental: (§1) ERa degradative activity of compounds can be assessed in MCF-7 and T47D Cells. MCF-7 and T47D cell are seeded and are subsequently treated with the compounds at certain concentrations (e.g., 0.02 to 300 nM). DMSO can be used as vehicle control. Cells are fixed and are blocked with Intercept (PBS) Blocking Buffer (e.g., Li—COR, Odyssey Blocking Buffer), and are stained with ER (e.g., 1:500, Cell signaling) primary antibody for overnight at cold room. Secondary Antibody (e.g., IRDye 800CW Goat anti-Rabbit IgG) and CellTag 700 Stain are added in Intercept (PBS) Blocking Buffer. Finally, cell plate is placed in incubator to dry. Image and signal are captured on Odyssey® DLx Imaging System.
(§2) In-cell Western (ICW) assays in MCF-7 and T47D cell lines.
(§3) Procedures for ICW assays
(§4) In vitro Assay: MCF-7 and T47D ICW assay
(§5) Day 3: After 16 hrs of compounds treatment, cells were fixed by 4% PFA and permeabilized with elution buffer (0.1% Triton X-100 in 1% PBS Solution). Subsequently, cells were blocked with Intercept (PBS) Blocking Buffer (Li—COR, Odyssey Blocking Buffer), and were stained with ER (1:500, Cell signaling) primary antibody for overnight at cold room.
(§6) Day 4: Remove the buffer, add IRDye 800CW Goat anti-Rabbit IgG Secondary Antibody (1:2000) and CellTag 700 Stain (1:500) in Intercept (PBS) Blocking Buffer. Finally, cell plate is placed in incubator to dry. Image and signal were captured on Odyssey® DLx Imaging System.

ER [2] = biological target: T1, ER; experiment: In-cell Western (ICW) ER degradation assay in T47D cells; type: cell-based; details: for Dmax: T47D, read-out: ER T47D ICW Dmax (%)
Experimental: as §1, §2, §3, §4, §5, §6

ERα_LBD (GST) = biological target: T2, ERα_LBD (GST) (Homo sapiens, UniProt P03372); experiment: IC50 measurements for binding to ERα_LBD (GST), LanthaScreen TR-FRET ERα competitive binding assay; details: Fluormone ES2 Green tracer, 60 min, read-out: ERα HTRF IC50
T2 construct: ERα_LBD (GST) protein: 4 nM; purchased ThermoFisher A15887
T2 sequence (P03372 311-547 limits assumed): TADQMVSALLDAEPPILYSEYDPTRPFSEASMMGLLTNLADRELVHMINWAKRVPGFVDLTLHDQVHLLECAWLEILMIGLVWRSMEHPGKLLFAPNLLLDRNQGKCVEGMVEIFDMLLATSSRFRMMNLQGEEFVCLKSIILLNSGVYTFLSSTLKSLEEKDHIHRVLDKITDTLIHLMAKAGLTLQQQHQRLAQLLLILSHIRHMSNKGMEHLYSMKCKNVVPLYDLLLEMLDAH
Experimental: In vitro Assay: IC50 Measurements for binding to ERα_LBD (GST)·
Final assay conditions: • 1. ERα_LBD (GST) protein: 4 nM • 2. Tb Anti-GST: 2 nM • 3. Fluormone ES2 Green tracer: 3 nM • 4. Incubation time: 60 min • 5. DMSO: 1% • 6. Assay buffer: Adding 1M DTT to Nuclear receptor Buffer K for final 5 mM DTT. • 7. ZPE: 1% DMSO • 8. HPE: 1 μM ARV_471 • 9. LanthaScreen® TR-FRET ERα Competitive Binding Assay (ThermoFisher, #A^15887)
100× Compound preparation: • 1) Cherry pick 2 μL 10 mM compound stock to column 1 of a 384 intermediate plate • 2) Add 18 μL DMSO to column 1 to dilute compound to 1 mM. • 3) Transfer 10 μL 1 mM compound to column 1 of a LDV plate. • 2) Add 6 μl DMSO to column 2-10 of the LDV plate. • 3) Compounds undergo 3-fold serial dilution (3 μL+6 μL) in DMSO. • 4) Transfer 120 nL compound solution to assay plate.
Prepare complete nuclear receptor buffer K by adding 1 M DTT to nuclear receptor buffer K for a final concentration of 5 mM DTT. Complete nuclear receptor buffer K must be prepared fresh daily. Prepare 2× protein solution using complete nuclear receptor buffer K containing 8 nM ERα_LBD (GST) and 4 nM Tb Anti-GST. Then, prepare 2× Fluormone ES2 Green tracer (6 nM) using complete nuclear receptor buffer K. Add 6 μL 2× Fluormone ES2 green tracer into a compound plate (PerkinElmer 6008289) by dragonfly with one-tips-addition. Subsequently, add 6 μL 2× protein solution into the plate. Briefly and gently mix the 384-well plate on a plate shaker and incubate at room temperature protected from light for 60 min. The plate is sealed with a cover to minimize evaporation. Read the plate at wavelengths of 520 nm and 495 nm. Calculate the TR-FRET ratio by dividing the emission signal at 520 nm by the emission signal at 495 nm. Generate a binding curve by plotting the emission ratio vs. the log [ligand]. To determine the IC50 value, fit the data using XL-fit for a sigmoidal dose-response.

CRBN/DDB1 = biological target: T3, CRBN/DDB1 (Homo sapiens, UniProt Q96SW2); type: binding; details: HTRF, Cy5-labeled Thalidomide probe
T3 construct: purchased Wuxi RP210521GA
T3 sequence (Q96SW2 whole entry): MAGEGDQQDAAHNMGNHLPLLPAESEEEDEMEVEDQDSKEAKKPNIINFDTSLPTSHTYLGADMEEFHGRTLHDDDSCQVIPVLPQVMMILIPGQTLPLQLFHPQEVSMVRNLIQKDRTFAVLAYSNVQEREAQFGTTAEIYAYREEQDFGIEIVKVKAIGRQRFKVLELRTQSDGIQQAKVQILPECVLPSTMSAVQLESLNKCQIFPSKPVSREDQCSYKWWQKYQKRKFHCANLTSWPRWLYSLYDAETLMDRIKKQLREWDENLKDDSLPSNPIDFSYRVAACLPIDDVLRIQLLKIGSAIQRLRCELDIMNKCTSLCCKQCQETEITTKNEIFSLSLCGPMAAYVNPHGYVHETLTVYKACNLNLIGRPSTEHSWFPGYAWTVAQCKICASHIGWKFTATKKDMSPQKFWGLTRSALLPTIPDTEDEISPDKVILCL
T3 sequence (Q16531 whole entry partner): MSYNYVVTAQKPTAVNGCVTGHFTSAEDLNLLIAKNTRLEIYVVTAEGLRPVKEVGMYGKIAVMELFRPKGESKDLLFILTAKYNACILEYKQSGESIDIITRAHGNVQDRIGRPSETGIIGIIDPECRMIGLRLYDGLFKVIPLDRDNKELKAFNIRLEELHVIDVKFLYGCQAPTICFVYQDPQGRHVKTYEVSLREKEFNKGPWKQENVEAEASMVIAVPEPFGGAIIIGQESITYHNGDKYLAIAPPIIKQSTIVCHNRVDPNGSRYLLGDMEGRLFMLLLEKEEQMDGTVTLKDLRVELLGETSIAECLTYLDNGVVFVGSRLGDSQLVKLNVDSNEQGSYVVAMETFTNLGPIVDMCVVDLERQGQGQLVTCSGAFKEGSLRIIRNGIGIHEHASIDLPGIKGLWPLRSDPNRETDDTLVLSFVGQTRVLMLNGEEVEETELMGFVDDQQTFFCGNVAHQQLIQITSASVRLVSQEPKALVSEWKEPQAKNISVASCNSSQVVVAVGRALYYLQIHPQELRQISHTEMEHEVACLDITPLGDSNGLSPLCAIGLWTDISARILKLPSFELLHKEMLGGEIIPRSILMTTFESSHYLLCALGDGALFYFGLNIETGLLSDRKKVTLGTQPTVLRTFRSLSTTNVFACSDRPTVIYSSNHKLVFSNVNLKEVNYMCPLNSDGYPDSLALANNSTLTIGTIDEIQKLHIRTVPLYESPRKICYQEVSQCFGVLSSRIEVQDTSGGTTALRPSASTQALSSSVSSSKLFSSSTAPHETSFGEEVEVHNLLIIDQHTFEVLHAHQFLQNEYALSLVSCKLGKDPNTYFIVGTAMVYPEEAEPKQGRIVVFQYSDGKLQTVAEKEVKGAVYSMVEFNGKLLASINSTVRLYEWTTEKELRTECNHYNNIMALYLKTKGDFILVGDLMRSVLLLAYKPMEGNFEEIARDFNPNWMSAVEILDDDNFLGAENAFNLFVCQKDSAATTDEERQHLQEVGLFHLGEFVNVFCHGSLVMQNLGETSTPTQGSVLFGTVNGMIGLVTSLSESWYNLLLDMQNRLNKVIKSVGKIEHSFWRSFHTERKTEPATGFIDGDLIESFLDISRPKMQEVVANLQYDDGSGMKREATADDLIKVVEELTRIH
Experimental: The binding potency was determined using HTRF assay technology (Perkin Elmer). Compounds were serially diluted in DMSO and 0.2 μL volume was transferred to white 384-well plate.

[3] = MCF7, read-out: ER MCF7 ICW Dmax (%)

Row | SMILES | ER MCF7 ICW Dmax (%) (ER [1]; MCF-7 cells, 16 hrs) | DC50 (ER [1]; MCF-7 cells, 16 hrs) [nM] | DC50 (ER [2]; T47D cells, 16 hrs) [nM] | ER T47D ICW Dmax (%) (ER [2]; T47D cells, 16 hrs) | IC50 (ERα_LBD (GST)) [nM] | IC50 (CRBN/DDB1) [nM] | Dmax (ER [1]; [3]) [%] | Dmax (ER [2]) [%] | Dmax (ER [2]; T47D cells, 16 hrs) [%] | Dmax (ER [1]; MCF7, MCF-7 cells, 16 hrs, read-out: ER MCF7 ICW Dmax (%)) [%]
1 | COc1cc(N2CCC(CN3CCN4c5ccc6c(c5OCC4C3)CN(C3CCC(=O)NC3=O)C6=O)CC2)ccc1C1c2ccc3[nH]ncc3c2CC(C)N1CC(F)F (stereo in doubt) [Compound A8, (R)-3-((S)-7-((1-(4-((6R,8S)-7-(2,2-difluoroethyl)-8-methyl-6,7,8,9-tetrahydro-3H-pyrazolo[4,3-f]isoquinolin-6-yl)-3-methoxyphenyl)piperidin-4-yl)methyl)-1-oxo-1,3,5,5a,6,7,8,9-octahydro-2H-pyrazino[1′,2′:4,5][1,4]oxazino[2,3-e]isoindol-2-yl)piperidine-2,6-dione] | A (“A”: >=75%) | < 1 | < 1 | A (“A”: >=75%) | ≥ 10 | 500 to 5000 | – | – | – | –
2 | C[C@@H]1Cc2c(ccc3[nH]ncc23)[C@@H](c2ccc(N3CCC4(CC3)CC(CN3CCC5(CC3)COc3cc6c(cc35)CN([C@H]3CCC(=O)NC3=O)C6=O)C4)cn2)N1CC1(F)CC1 [Compound A5, (S)-3-(1′-((7-(6-((6S,8R)-7-((1-fluorocyclopropyl)methyl)-8-methyl-6,7,8,9-tetrahydro-3H-pyrazolo[4,3-f]isoquinolin-6-yl)pyridin-3-yl)-7-azaspiro[3.5]nonan-2-yl)methyl)-7-oxo-5,7-dihydro-2H,6H-spiro[furo[2,3-f]isoindole-3,4′-piperidin]-6-yl)piperidine-2,6-dione] | – | < 1 | < 1 | – | < 10 | 50 to 500 | 50 to 75 | 50 to 75 | – | –
3 | C[C@@H]1Cc2c(ccc3[nH]ncc23)[C@@H](c2ccc(N3CC4(CCC(CN5CCN6c7ccc8c(c7OC[C@H]6C5)CN(C5CCC(=O)NC5=O)C8=O)CC4)C3)cn2)N1CC1(F)CC1 (stereo partly drawn) [Compound A16, (S)-3-((R)-7-((2-(6-((6S,8R)-7-((1-fluorocyclopropyl)methyl)-8-methyl-6,7,8,9-tetrahydro-3H-pyrazolo[4,3-f]isoquinolin-6-yl)pyridin-3-yl)-2-azaspiro[3.5]nonan-7-yl)methyl)-1-oxo-1,3,5,5a,6,7,8,9-octahydro-2H-pyrazino[1′,2′: 4,5][1,4]oxazino[2,3-e]isoindol-2-yl)piperidine-2,6-dione] | – | < 1 | < 1 | – | < 10 | – | > 75 | – | > 75 | –
4 | C[C@@H]1Cc2c(ccc3[nH]ncc23)[C@@H](c2ccc(N3CC4(CCC(CN5CCN6c7ccc8c(c7OC[C@H]6C5)CN([C@H]5CCC(=O)NC5=O)C8=O)CC4)C3)cn2)N1CC1(F)CC1 [Compound A11, (S)-3-((R)-7-((2-(6-((6S,8R)-7-((1-fluorocyclopropyl)methyl)-8-methyl-6,7,8,9-tetrahydro-3H-pyrazolo[4,3-f]isoquinolin-6-yl)pyridin-3-yl)-2-azaspiro[3.5]nonan-7-yl)methyl)-1-oxo-1,3,5,5a,6,7,8,9-octahydro-2H-pyrazino[1′,2′: 4,5][1,4]oxazino[2,3-e]isoindol-2-yl)piperidine-2,6-dione] | – | < 1 | < 1 | – | ≥ 10 | – | – | – | > 75 | > 75
5 | C[C@@H]1Cc2c(ccc3[nH]ncc23)C(c2ccc(N3CCC4(CC3)CC(CN3CCN5c6ccc7c(c6OC[C@H]5C3)CN([C@H]3CCC(=O)NC3=O)C7=O)C4)nc2)N1CC(F)(F)F (stereo in doubt) [Compound A25, (S)-3-((R)-7-((7-(5-((6S,8R)-8-methyl-7-(2,2,2-trifluoroethyl)-6,7,8,9-tetrahydro-3H-pyrazolo[4,3-f]isoquinolin-6-yl)pyridin-2-yl)-7-azaspiro[3.5]nonan-2-yl)methyl)-1-oxo-1,3,5,5a,6,7,8,9-octahydro-2H-pyrazino[1′,2′: 4,5][1,4]oxazino[2,3-e]isoindol-2-yl)piperidine-2,6-dione] | – | < 1 | < 1 | – | < 10 | – | > 75 | – | > 75 | –
